Several values for one entry are separate records, joined by “and”; a condition that tells them apart may be missing. Equal entries are not always repeated.
Columns and labels:
[1] = tested on: PC-3 cells; test: Resazurin cytotoxicity assay, PC-3; format: cell-based, human
Description: (§1) An initial indication of compound selectivity over human cells had previously been obtained through comparison of the compounds’ IC50 values against P. falciparum asexual stages and HEK293 [22]. In the present study, the selectivity investigation was extended to a small panel of human cancer cell lines, namely the estrogen receptor (ER)-positive breast cancer cell line MCF7, the ER-negative MDA-MB-231, as well as the human prostate cancer line, PC-3. Additionally, the cytotoxic effects on mouse embryonic fibroblast cell line 3T3, which serves as the host cell for T. cruzi in our image-based amastigote assay, were investigated.
(§2) Cytotoxicity of the compounds was assessed against a panel of human cancer cell lines, namely the estrogen receptor (ER)-positive breast cancer cell line MCF7, the ER-negative MDA-MB-231 and the prostate cancer line PC-3. All the cell lines were purchased from ATCC and maintained as previously described. Two biological replicates consisting of two technical replicates each were performed to generate concentration response curves (CRC) with a final highest concentration of 40 μM. A resazurin-based assay was utilized to determine cell viability as described earlier. Additionally, the cytotoxic effects on the mouse embryonic fibroblast cell line 3T3 were assessed as part of the Trypanosoma cruzi amastigote image-based assay as outlined in [35].

[2] = tested on: P. falciparum asexual blood stages / early gametocytes; test: Chemical rescue of MMV000570 (Table S3B; PfAS and PfEG replicates, columns not assignable); format: cell-based, Plasmodium falciparum; details: stage and replicate not assignable
Procedure: (§3) An imaging based assay was utilised to assess the chemical rescue on asexual stages of P. falciparum as described previously. All the pathway intermediates were purchased from Sigma. CoA and dP-CoA were dissolved in sterile distilled water to obtain a 20 mM stock solution, which was then aliquoted and stored at -20 °C until use. […] Each pathway intermediate was tested on the parasites at a range of concentrations to assess potential toxicity. […] On early stage P. falciparum gametocytes the same concentrations as for CoA were tested for dP-CoA; against asexual blood stage P. falciparum, late stage gametocytes and Trypanosoma b. brucei five dP-CoA concentrations were tested (2 mM, 1.5 mM, 1 mM, 0.75 mM and 0.5 mM).
(§4) The same concentration ranges of the CoA pathway intermediates were supplemented to parasites treated with the experimental compounds. […] The negative control used in each assay was 0.4% DMSO, whilst the positive control was 2 μM artemisinin for asexual P. falciparum blood stages and 5 μM puromycin for all gametocyte stages and T. b. brucei. The percentage growth of the respective parasites following compound treatment was determined using Microsoft ® Excel 2010, and compared with their controls. All rescue assays were performed as two independent experiments each in duplicate point.

[3] = tested on: MCF7 cells; test: Resazurin cytotoxicity assay, MCF7; format: cell-based, human
Description: as §1, §2

[4] = tested on: T. cruzi amastigotes; test: T. cruzi amastigote image-based assay in 3T3 host cells; format: cell-based, Trypanosoma cruzi; details: 40 µM per footnote; given if an IC50 could not be calculated
Procedure: The next step taken was to determine whether the activity of the compounds was confined to P. falciparum, or whether it extended to other protozoan parasites. Compound activity against two members of another clinically important group of parasites, the kinetoplastids T. cruzi and T. b. brucei was determined. The sensitive high content imaging assay used to determine compound activity against T. cruzi assesses the intracellular amastigote life form of the parasite in the 3T3 host cell. It is important to simultaneously assess compound activity against 3T3 cells to determine potential cytotoxicity against the host cell line, since this could result in a false positive outcome. The T. b. brucei assay employs the REDOX indicator Alamar Blue to assess viability, which was developed into a 384-well assay format.
Compound activity against T. cruzi amastigotes was assessed in an image-based assay in single point concentration-response and three biological replicates, at a final highest compound concentration of […], as previously described.

[5] = tested on: HEK293 cells; details: as previously reported; read-out: HEK293 cytotoxicity IC50 ± SEM; cited from earlier work
[6] = tested on: 3T3 cells; test: 3T3 host cell cytotoxicity (part of T. cruzi amastigote image-based assay); design: species or system mouse; details: bound = highest concentration with < 50 % inhibition; read-out: 3T3 cytotoxicity IC50 ± SEM
Description: as §1, §2

[7] = tested on: P. falciparum asexual blood stages (PfAS); test: Chemical rescue with CoA pathway intermediates, asexual stages; format: cell-based, Plasmodium falciparum; details: for Percent rescue ± SEM by CoA, PfAS: CoA 0.8 mM; for Percent rescue ± SEM by CoA, PfAS / Percent rescue ± SEM by dephospho CoA, PfAS / Percent rescue ± SEM by pantethine, PfAS / Percent rescue ± SEM by pantothenate, PfAS: inhibitor at IC80; for Percent rescue ± SEM by dephospho CoA, PfAS: dP-CoA 0.8 mM; for Percent rescue ± SEM by pantethine, PfAS: pantethine 125 μM; for Percent rescue ± SEM by pantothenate, PfAS: pantothenate 300 μM
Procedure: (§5) Pantothenate is the first substrate of the pathway (Fig. 1) and its addition was intended to rescue the action of possible competitive inhibitors of the first enzyme, PanK. […] It is not known, whether P. falciparum is capable of pantetheine phosphorylation for utilization in CoA synthesis. […] Finally, the rescue ability of dP-CoA, the final substrate of CoA synthesis, was tested. […] Inhibitors competing with dP-CoA for DPCK binding were expected to be displaced, thereby rescuing parasite survival, by dP-CoA supplementation in a concentration dependent manner.
as §3
as §4, with “compounds. The inhibitors were used at their respective final assay concentration of IC80 (as determined previously in the corresponding P. falciparum development stage or T. b. brucei assay).” for “compounds.”

[8] = tested on: MDA-MB-231 cells; test: Resazurin cytotoxicity assay, MDA-MB-231; format: cell-based, human
Description: as §1, §2

[9] = tested on: T. cruzi trypomastigotes; test: T. cruzi trypomastigote PrestoBlue assay; format: cell-based, Trypanosoma cruzi; details: for T. cruzi trypomastigote percent inhibition at the highest concentration tested: 40 µM, given if an IC50 could not be calculated
Procedure: Compound activity against T. cruzi trypomastigotes was assessed in two independent experiments, without technical repeats, at a final highest compound concentration of 40 μM in concentration-response PrestoBlue assay, as previously described.

[10] = tested on: T. b. brucei trypomastigote; test: T. b. brucei resazurin (Alamar Blue) viability assay; format: cell-based, Trypanosoma brucei brucei; details: for IC50: highest concentration 40 μM, read-out: T. b. brucei trypomastigote IC50 ± SEM
Procedure: Compound activity against two members of another clinically important group of parasites, the kinetoplastids T. cruzi and T. b. brucei was determined. The sensitive high content imaging assay used to determine compound activity against T. cruzi assesses the intracellular amastigote life form of the parasite in the 3T3 host cell. […] The T. b. brucei assay employs the REDOX indicator Alamar Blue to assess viability, which was developed into a 384-well assay format.
Compound activity against T. b. brucei was assessed in a resazurin-based viability assay in concentration-response assays, without technical repeats, in two experimental replicates at a highest concentration of 40 μM, as previously described.

[11] = tested on: P. falciparum asexual blood stage; details: cited from earlier work; for IC50: as previously reported, read-out: Asexual P. falciparum IC50 ± SEM
[12] = target: early stage gametocytes (stage I to IIb/III) of P. falciparum line NF54^Pfs16; test: Gametocyte luciferase assay, early stage; format: cell-based, Plasmodium falciparum; details: highest concentration 40 μM; read-out: Early stage gametocyte IC50 ± SEM
Description: (§6) To investigate a potential role of CoA biosynthesis for host to vector transmission of the malaria parasite, we investigated the activity of our compounds on P. falciparum gametocytes, the sexual stages of P. falciparum, essential for malaria transmission. […] Parasite stage-specificity and gametocytocidal activity of the compounds was therefore investigated, utilizing a luciferase-based approach on early stage (development from stage I to IIb/III [30]) and late stage (IV to V [51]) gametocytes.
(§7) Induction of P. falciparum gametocyte differentiation and gametocyte culturing were performed as previously described. Compound activity against early stage gametocytes (covering the development from stage I to IIb/III) and late stage gametocytes (stage IV to V) of the recombinant P. falciparum line NF54^Pfs16 was assessed in concentration-response assays, in two experimental replicates consisting of two technical repeats each, at a highest concentration of 40 μM, as described earlier.

[13] = tested on: late stage gametocytes (stage IV to V) of P. falciparum line NF54^Pfs16; test: Gametocyte luciferase assay, late stage; format: cell-based, Plasmodium falciparum
Description: as §6, §7

[14] = tested on: panel of human cancer cell lines (MCF7, MDA-MB-231, PC-3); test: Cytotoxicity across the panel of cell lines; format: cell-based
Description: as §1, §2

[15] = tested on: P. falciparum early stage gametocytes (PfEG, stage I-III); test: Chemical rescue with CoA pathway intermediates, early stage gametocytes; format: cell-based, Plasmodium falciparum; details: inhibitor at IC80
Procedure: as §5, §3, §4

[16] = tested on: early stage gametocytes (stage I to IIb/III) of P. falciparum line NF54^Pfs16; details: cited from earlier work
[17] = tested on: P. falciparum developmental stages; test: Activity across all P. falciparum life-cycle stages tested (asexual, early and late gametocytes); format: cell-based, Plasmodium falciparum; details: early and late stage gametocytes
Procedure: as §7

[18] = 40 µM, given if an IC50 could not be calculated

CCc1ccc(Nc2cc(C)c3ccc(O)cc3n2)cc1.Cl [MMV000570]
PC-3 percent inhibition at the highest concentration tested ([1]; 40 µM): 98% | percent rescue averages ± SEM by CoA, tested at IC80 concentration [2]: 6.4% and 8.1% and -1.6% and 26.7% | percent rescue averages ± SEM by pantothenate, tested at IC50 concentration [2]: 3.5% and -0.6% and 4.3% and 28.6% | percent rescue averages ± SEM by pantothenate, tested at IC80 concentration [2]: 3.1% and 2.2% and 2.3% and 5.2% | MCF7 percent inhibition at the highest concentration tested ([3]; 40 µM): 96% | T. cruzi amastigote percent inhibition at the highest concentration tested [4]: 96% | IC50 [5]: ~40 µM | IC50 [6]: > 40 µM | Rescue of growth inhibitory effect by any of the intermediates (in words) ([7]; compound at 1 μM): could not effectively be rescued by any of the intermediates | MDA-MB-231 percent inhibition at the highest concentration tested ([8]; 40 µM): 90% | T. cruzi trypomastigote percent inhibition at the highest concentration tested [9]: 100% | IC50 [10]: 5.85 ± 1.11 µM

COc1ccc2c(=O)cc(C(Cl)(Cl)Cl)oc2c1 [MMV665820]
IC50 [11]: 0.58 ± 0.08 µM | plateau of P. falciparum growth inhibition ([11]; asexual blood stage): 100% | IC50 [12]: 0.44 ± 0.03 µM | inhibition plateau level of the concentration-response curve, PC-3 [1]: 80% | Late stage gametocyte percent inhibition at the highest concentration tested [13, 18]: 69% | IC50 ([14]; MCF7, MDA-MB-231, PC-3, read-out: IC50 range against the cancer cell lines): 270 to 430 nM | T. cruzi amastigote percent inhibition at the highest concentration tested [4]: 62% | Percent rescue ± SEM by pantethine, PfEG ([15]; pantethine 10 mM): No | Percent rescue ± SEM by pantothenate, PfEG ([15]; pantothenate 625 μM): No | Percent rescue ± SEM by CoA, PfAS [7]: 113.3 ± 12.3% | Percent rescue ± SEM by dephospho CoA, PfAS [7]: 88.6 ± 18.3% | Percent rescue ± SEM by pantethine, PfAS [7]: No | Percent rescue ± SEM by pantothenate, PfAS [7]: No | inhibition against early stage gametocytes in earlier dose-response ([16]; 1 μM): about 50% | inhibition plateau level of the concentration-response curve, MDA-MB-231 [8]: 43% | T. cruzi trypomastigote percent inhibition at the highest concentration tested [9]: 100% | IC50 [10]: 2.5 µM

OC1CCCCC1C1(NC(=S)Nc2ccccc2)CCCCC1 (centres unmarked) [MMV665980]
IC50 [11]: 6.31 ± 1.06 µM | IC50 [12]: 7.54 ± 0.39 µM | IC50 ([1]; highest concentration 40 μM, bound = highest concentration with < 50 % inhibition, read-out: PC-3 cytotoxicity IC50 ± SEM): > 20 µM | activity against all P. falciparum development stages tested (in words) [17]: moderate, single digit micromolar activity | IC50 ([13]; highest concentration 40 μM, read-out: Late stage gametocyte IC50 ± SEM): 4.15 ± 0.56 µM | cytotoxicity against any of the cell lines investigated (in words) ([14]; up to the highest tested concentration of 40 μM): no or only negligible cytotoxicity | IC50 ([3]; highest concentration 40 μM, bound = highest concentration with < 50 % inhibition, read-out: MCF7 cytotoxicity IC50 ± SEM): > 40 µM | T. cruzi amastigote percent inhibition at the highest concentration tested [4]: 70% | IC50 [5]: > 40 µM | IC50 [6]: > 40 µM | Percent rescue ± SEM by CoA, PfAS [7]: 54.4 ± 2.5% | Percent rescue ± SEM by dephospho CoA, PfAS [7]: 46.0 ± 2.6% | Percent rescue ± SEM by pantethine, PfAS [7]: No | Percent rescue ± SEM by pantothenate, PfAS [7]: No | gametocytocidal activity in earlier screen versus hit threshold (in words) ([16]; screening concentration 5 μM, threshold 50% activity): lower than the hit threshold | IC50 ([8]; highest concentration 40 μM, bound = highest concentration with < 50 % inhibition, read-out: MDA-MB-231 cytotoxicity IC50 ± SEM): > 40 µM | IC50 ([9]; highest concentration 40 μM, read-out: T. cruzi trypomastigote IC50 ± SEM): 4.42 ± 0.89 µM | T. b. brucei trypomastigote percent inhibition at the highest concentration tested [10, 18]: 100%
